Results as given in patent publication US7368287B2, “Use of L-α-lysophosphatidylcholine to obtain the differentiation of monocytes into mature dendritic cells in vitro” (Biomerieux, priority 2002, dated 2008).
Values belong to the compound of their own block, whether it stands above or below them.

What was measured:
[1] = tested on: PAF receptor; test: CD86 expression in presence of PAF or of the PAF antagonist BN52021; assay type: cell-based, human; settings: differentiation induced by oxidized LDLs; BN52021 added on 5th day
Protocol: The phenotype of the “control” and “LPC” cells is analyzed by flow cytometry on a FACSCalibur (Becton Dickinson, Francklin Lakes, N.J., USA) using FITC (fluorosceine isothiocyanate)-conjugated anti-CD14, anti-HLA-DR and anti-CD80 and PE (phycoerythrin)-conjugated anti-CD1a, anti-CD83, anti-CD86 and anti-CD40 (Beckman Coulter). According to the state of the art, monocytes preferentially have a CD14+ CD1a− phenotype, immature dendritic cells preferentially have a CD14− CD1a+CD86− phenotype, and mature dendritic cells preferentially have a CD14− CD1a intermediate—CD86+ phenotype.
Thus, a solution of PAF (Sigma, 5 μM) was added to the culture medium on the 5th day of monocyte differentiation. The expression of CD86 by the “control” cells and by the “LPC” cells, obtained in the presence or in the absence of PAF, was analyzed according to the protocol described in example 2, and the results are given in table 9.
Thus, a solution of the PAF antagonist BN52021 (Biomol, Plymouth Meeting, USA, 100 μM) was added to the culture medium on the 5th day of monocyte differentiation. The expression of CD86 by the “control” and “LPC” cells, obtained in the presence or in the absence of BN52021, was analyzed according to the protocol described in example 2, and the results are given in table 10.

[2] = biological target: T1, PPARγ (Homo sapiens, UniProt P37231); test: PPAR binding activity by gel shift on nuclear proteins of treated monocytes; assay type: cell-based; settings: Table 7; ciglitizone 50 μM 15 minutes before LPC 40 μM for 2 hours; control = 100%
T1 construct: After having harvested the cells, the nuclear proteins were extracted with the Nuclear extract Kit (Sigma); endogenous in cells; host or cells: monocytes undergoing differentiation into dendritic cells (nuclear extract)
T1 sequence (P37231 1-505): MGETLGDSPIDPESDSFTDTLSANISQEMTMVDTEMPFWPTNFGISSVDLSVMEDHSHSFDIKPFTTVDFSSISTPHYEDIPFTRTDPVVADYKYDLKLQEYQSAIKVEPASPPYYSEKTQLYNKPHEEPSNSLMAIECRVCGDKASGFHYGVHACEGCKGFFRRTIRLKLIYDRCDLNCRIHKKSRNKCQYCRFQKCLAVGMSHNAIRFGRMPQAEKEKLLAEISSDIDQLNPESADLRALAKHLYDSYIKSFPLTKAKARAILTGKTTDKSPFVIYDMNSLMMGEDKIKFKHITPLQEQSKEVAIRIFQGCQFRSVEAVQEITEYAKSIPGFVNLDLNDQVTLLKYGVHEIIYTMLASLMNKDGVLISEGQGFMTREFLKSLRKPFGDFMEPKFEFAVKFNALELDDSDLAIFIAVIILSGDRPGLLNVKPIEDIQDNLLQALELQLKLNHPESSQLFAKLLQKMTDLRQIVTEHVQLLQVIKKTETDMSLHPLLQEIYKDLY
Protocol: (§1) Next, the inventors investigated the transcription factors involved in the maturation process induced by LPC. In order to determine whether PPARs are involved in the LPC-induced maturation, the ability of the two transcription factors PPARγ and PPARδ to bind was analyzed using the gel shift technique. 3 isotypes of PPAR nuclear receptors (peroxisome proliferator-activated receptor) exist: α, γ and δ. PPARγs are the targets for molecules of the thiazolidinedione class, such as ciglitizone, used in the treatment of type II diabetes. PPARδs have a broader expression and can be repressors of PPARγs. The monocytes undergoing differentiation were incubated for two hours with a solution of LPC (40 μM) (“LPC” cells). “Control” cells are also obtained in the absence of LPC in the culture medium. After having harvested the cells, the nuclear proteins were extracted with the Nuclear extract Kit (Sigma). The nuclear proteins were then brought into contact with a ratioactively labeled probe containing a response element recognized by PPARs. […] The PPAR binding activity was determined by measuring the intensity of these bands. These activities are expressed as a percentage with respect to the “control” cells. […]
(§2) The activity of the PPARγ and PPARδ transcription factors was measured in these cells by the gel shift technique, as described above.
(§3) INTRALIPID® regulates PPARs in vitro. […] The cells were harvested after 1 h, 2 h or 8 h of incubation with INTRALIPID®, the nuclear proteins were extracted and the activity of PPARγ and PPARδ was determined as described in example 6.
(§4) Secondly, a solution of INTRALIPID® (50 μg/ml of phospholipids) was added to the culture medium on the 5th day of monocyte differentiation, 15 minutes before the addition of a solution of LPC (40 μM) (“LPC+Intralipid” cells). […] The cells were harvested after 2 h of incubation, the nuclear proteins were extracted and the activity of PPARγ and PPARδ was determined as described in example 6.

[3] = tested on: PPARδ; test: as above; assay type: cell-based, human; settings: Table 7; ciglitizone 50 μM 15 minutes before LPC 40 μM for 2 hours; control = 100%
Protocol: as §1, §2, §3, §4

[4] = tested on: BALB/c mice; test: Migration of skin dendritic cells to draining lymph nodes (FITC uptake); assay type: in vivo, mouse; settings: auricular and maxillary lymph nodes after 24 h; LPC 0.1 M on ear skin 10 minutes before FITC 1.5%
Protocol: This fluorescent label is taken up by the dendritic cells of the skin. After 24 h, the auricular and maxillary lymph nodes are removed and the cells are placed in suspension. The cell suspension is enriched in dendritic cells by metrizamide (Sigma) gradient centrifugation. The cells are labeled with an antibody (Pharmingen) which recognizes Major Histocompatibility Complex (MHC) […] molecules and analysis by flow cytometry makes it possible to quantify the percentage of large cells (dendritic cells) expressing the MHC class II molecules and containing FITC. These cells are presenting cells which have taken up the FITC in the periphery and have migrated to the lymph nodes.

[5] = tested on: BALB/c mice; test: Proliferation of HEL-specific T cells of popliteal lymph nodes after immunization (thymidine incorporation); assay type: in vivo, mouse
Protocol: LPC stimulates the T response specific for a co-injected soluble antigen. LPC dissolved in PBS (250 or 500 nmol in 50 μl) is mixed with hen egg lysozyme (HEL, 50 μg) and this mixture is injected into the plantar foot pad of BALB/c mice. After 7 days, the popliteal lymph nodes are removed and their cells are restimulated in triplicate in vitro, in a culture medium containing 30 μM of HEL antigen, or in the absence of HEL. After 3 days, the T lymphocyte proliferation is measured by incorporation of triturated thymidine for 16 h.
INTRALIPID® blocks the inflammation and the immune response induced by LPC, in vivo. In this example, 3 batches of BALB/c mice are immunized against the hen egg lysozyme (HEL) antigen by injection of 50 μl of solution into the plantar foot pad. The “HEL” control batch receives 50 μg of HEL, the “HEL+Intralipid” batch receives a mixture of INTRALIPID® (45 μl) and of 50 μg of HEL (5 μl of a solution at 10 mg/ml). The “HEL+LPC” batch receives 50 μg of HEL with 350 nmol of LPC dissolved in PBS. The “HEL+LPC+Intralipid” batch receives 50 μg of HEL mixed with 350 nmol of LPC dissolved in 45 μl of INTRALIPID®. After 24 hours, the thickness of the foot pads is measured using a micrometer, and compared with the measurement taken before injection. The difference in thickness is proportional to the intensity of the inflammation.
Seven days after the injection, the popliteal lymph nodes are removed and their cells are restimulated in vitro in triplicate, in a culture medium containing 10 μM of HEL or in the absence of HEL. After 3 days, the proliferation of HEL-specific T lymphocytes is measured by incorporation of triturated thymidine for 16 h.

[6] = Table 18, HEL 50 μg, LPC 350 nmol, Intralipid 45 μl, seven days after injection

Inhibition of the action of the oxidized LDLs [1]: 100%
Compound: CC1C(=O)OC2C(O)C34C5CC(C(C)(C)C)C36C(OC(=O)C6O)OC4(C(=O)O5)C12O (centres unmarked) [BN52021, reference compound]

PPARγ binding activity [2]: 237%
Compound: CC1(COc2ccc(CC3SC(=O)NC3=O)cc2)CCCCC1 (centres unmarked) [Ciglitizone, reference compound]
PPARδ binding activity [3]: 106%

Compound: O=C1OC2(c3ccc(O)cc3Oc3cc(O)ccc32)c2ccc(N=C=S)cc21 [FITC]
FITC+ dendritic cells [4]: 7.1 ± 1.7%

Compound: HEL: hen egg lysozyme, soluble antigen; antigen-only group
Restimulation with HEL (30 μM) ([5]; Table 13, immunization with HEL 50 μg alone): 5370 ± 1983 CPM
Proliferation in the absence of HEL ([5]; Table 13, immunization with HEL 50 μg alone, day 7 lymph node cells): 1315 ± 275 CPM
Proliferation in the absence of HEL [5, 6]: 370 ± 212 cpm
Restimulation with HEL (10 μM) [5, 6]: 738 ± 408 cpm
